Article PMC11267380, “USP25 Elevates SHLD2‐Mediated DNA Double‐Strand Break Repair and Regulates Chemoresponse in Cancer” (Advanced Science, 2024)

Legend:
Assay type in all cases: cell-based
[1] = system: RKO cells; assay: CCK8 survival assay, control, USP25 knockdown and SHLD2-depleted RKO cells; details: 5-Fu (0, 0.1, 0.5, 1, 3 µM) or cisplatin (0, 0.1, 0.5, 1, 2, 5 µM)
Protocol: For long‐term proliferation, cells were seeded in triplicate in each well of 96‐well plates at a density of 1000 cells per well. After 24 h of culture, the cells were treated with the indicated doses of regents or peptides and incubated at 37 °C for 72 h. Subsequently, the medium was changed to a fresh medium containing cell counting kit‐8 solution (Dojindo, CK04), and the cells were placed in the incubator for an additional 1–2 h. The absorbance was measured at 450 nm using the SpectraMax M5 reader (Molecular Devices).
a) HEK293T cells stably expressing control or USP25 shRNA were untreated and treaded with etopside at the indicated time point. Cells were lysed and lysates was performed with the indicated antibodies. b-c) Representative foci images and quantification of RPA32 (b) and RAD51 (c) were obtained in U2OS cells stably expressing control or USP25 shRNA with or without IR treatment (2Gy). n>80 in each group. d) USP25 was knocked down in ER-AsiSI U2OS cells by shRNA, and cell lysates were analyzed using the indicated antibodies. e) Schematic representation of Taqman qPCR primer design for measurement of DSB% at AsiSI sites located on chromosome1(Chr.1). The primer pairs of DNA resection are across BamHI restriction sites are marked by red arrows. ER-AsiSI U2OS cells stably expressing control and USP25 shRNA were treated with 300 nM 4- hydroxytamoxifen (4-OHT) for 4 h or mock treated and genomic DNA was then extracted and digested with BamHI overnight. The percentages of ssDNA at various distances (364nt, 1754nt and 3564nt) were measured by qPCR. f-h) Control and USP25 knockdown RKO cells transfected short interfering RNAs (siRNA) against SHLD2 were subjected to survival assays for CCK8 assay in response to IR (0, 1,1.5,2,2.5,3Gy), 5-Fu (0, 0.1,0.5,1,3µM) or cisplatin(0, 0.1,0.5,1,2,5µM). Statistical analysis was performed using two-way ANOVA followed by a Turkey’s multiple comparison test (b,c,e,f,g,h) .

[2] = system: SW620 cells; assay: CCK8 survival assay, SW620 cells overexpressing TRIM25; details: SW620 ctrl, 5-Fu (0, 0.1, 0.5, 1, 3 µM), 72 h
Source text: Figure 6 TRIM25 ubiquitinates and inactivates USP25. a) The mRNA expression levels of USP25 in human normal colon tissue samples (n = 41) and colorectal adenocarcinoma tissue samples (n = 286 COAD patients) from the Ualcan database. b) The mRNA expression level of USP25 in human colon cell lines and colon carcinoma cell lines through qPCR. c) The protein expression level of USP25 in human colon cell lines and colon carcinoma cell lines through western blot. d) Tissue microarray with representative IHC images showing USP25 protein expression in COAD tumors and adjacent tissues. […] Cell lysates were subjected to HA resin, and the immunoprecipitants were subsequently blotted using the indicated antibodies. f) The protein expression levels of USP25 were evaluated in HEK293T cells transfected with MYC‐TRIM25 or Flag‐HECTD3. g) The effect of cycloheximide (CHX) treatment on USP25 expression levels was analyzed in HEK293T cells transfected with TRIM25 for an indicated duration of time. h) In vivo ubiquitination assays were performed in control and TRIM25 knockdown cells, transfected with indicated plasmids, and treated with MG132 for 4 h before harvesting. […]
For long‐term proliferation, cells were seeded in triplicate in each well of 96‐well plates at a density of 1000 cells per well. […] The absorbance was measured at 450 nm using the SpectraMax M5 reader (Molecular Devices).

[3] = system: RKO and SW620 cells; assay: CCK8 survival assay, USP25 knockdown USP25-high colon cancer cells; details: RKO: cisplatin (0, 0.5, 1, 3 µM), 5-Fu (0, 0.1, 0.5, 1, 3 µM), SW620: 5-Fu (0, 0.1, 0.5, 1, 3 µM), 72 h
Protocol: For long-term proliferation, cells were seeded in triplicate in each well of 96-well plates at a density of 1000 cells per well. After 24 h of culture, the cells were treated with the indicated doses of regents or peptides and incubated at 37 °C for 72 h. Subsequently, the medium was changed to a fresh medium containing cell counting kit-8 solution (Dojindo, CK04), and the cells were placed in the incubator for an additional 1-2 h. […] a) The mRNA expression levels of TRIM25, HECTD3, NEDD4L and WWP2 in human normal colon tissue samples (n=41) and colorectal adenocarcinoma tissue samples (n=286 COAD patients) from the Ualcan database were analyzed. b) The protein expression levels of USP25 were measured in HEK293T cells that stably expressed TRIM25 shRNA. c) NHEJ repair capacity of control or TRIM25 knockdown cells were subjected using a reporter assay. d-g) Immunoblot of USP25 in the RKO cells stably expressing control and USP25 shRNA. […] Statistical analysis was performed using t-test (a) or one-way ANOVA followed by a Turkey's multiple comparison test (c) or two-way ANOVA followed by a Turkey's multiple comparison test ([…]) .

SMILES: O=c1[nH]cc(F)c(=O)[nH]1 [5‐Fu, 5‐fluorouracil]
- sensitization by USP25 knockdown ([1]; Figure S2f-h): sensitized cells to IR, 5‐Fu, and cisplatin treatment
- sensitization by USP25 knockdown in SHLD2-depleted cells ([1]; SHLD2 siRNA): didn't further lead cells to sensitize to these treatments
- sensitization by TRIM25 overexpression [2]: sensitize to 5‐Fu treatment in ctrl SW620 cells
- sensitization by USP25 knockdown, USP25-high cell lines [3]: sensitized the cells to IR, cisplatin, and 5‐Fu treatment
